Data on 21 compounds can be found in patent US11708366B2, “Heteroaryl substituted spiropiperidinyl derivatives and pharmaceutical uses thereof” (Novartis AG, priority 2020, dated 2023).

Each structure is given as a SMILES string.

For this assay, the target named is LTC4S (Homo sapiens (Human), UniProt Q16873). As to the kind of experiment: Human whole blood HTRF assay (LTC4 release after calcium ionophore A23187). Type of assay: cell-based. As to conditions: human whole blood diluted 1:3, 4 h incubation, calcium ionophore A23187 stimulation, LTC4 by HTRF; read-out: human whole blood HTRF IC50. The procedure:
B. Human Whole Blood HTRF Assay
LTC4 synthase catalyzes the conversion of Leukotriene A4 (LTA4) to Leukotriene C4 (LTC4) in the presence of reduced glutathione (GSH) as a co-substrate. For testing the inhibition of LTC4S, compounds are prepared for either eight-point or sixteen-point dose response studies in 384-well Labcyte low dead volume (LDV) plates. For eight-point dose response studies, compounds are diluted 1:5 starting at 1 μM concentration in 90% DMSO. […] Compounds are studied in duplicates. Ten wells are filled with 90% DMSO which correspond to the stimulated and unstimulated control wells. […] The morning of the assay, whole blood is collected from three human donors. Donors must be non-smokers and must not have taken NSAIDs within the 48 hours prior to blood collection. The amount of blood collected per donor depends on the amount of compounds to be tested and the dose response format in which they are to be studied (about 8 mL of whole blood for either 22 compounds in 8-point dose response format or 11 compounds in 16-point dose response format). […] 50 μL of diluted blood are then dispensed into each assay plate well with pre-dispensed compounds and DMSO for the stimulated and unstimulated controls using a Thermo Scientific™ Multidrop™ Combi reagent dispenser, and incubated at 37° C. for 4 hours. Calcium ionophore A23187 is used to induce a rapid increase in intracellular levels of Ca^2+. The Ca^2+ functions as a universal second messenger in various immune cells, such as T cells, B cells and mast cells, and is used to induce degranulation and release of eicosanoids, including LTC4, by cells contained in the whole blood samples. […] All but the unstimulated control wells are subsequently stimulated by dispensing 1 μL of the 0.5 mg/mL calcium ionophore suspension using the Thermo Scientific™ Multidrop™ Combi reagent dispenser. Plates are incubated for 15 minutes at 37° C. Plates are then centrifuged at 300 g for 10 minutes at room temperature to pellet blood cells and stop the reaction. […] Plates are sealed and stored at −80° C.
In order to measure the amount of LTC4 released by cells in the human blood samples during calcium ionophore stimulation, supernatants are analyzed using the Cisbio LTC4 homogeneous time-resolved FRET (HTRF) kit (Cisbio #64LC4PEH). […] Ten serially diluted standard curve solutions are also dispensed in duplicate into each plate as instructed in the protocol. Blank controls and cryptate control wells are also prepared. Then, 5 μL of anti-LTC4-d2 working solution are dispensed into all the wells, but the cryptate control wells. Subsequently, 5 μL of anti-LTC4-Eu3+ cryptate working solution are dispensed into all the wells. Plates are then covered with a lid and incubated at room temperature for one hour with gentle orbital shaking (˜450 rpm). […] HTRF ratios are calculated for each well by dividing the 665 nm intensity by the 620 nm intensity, and multiplying the resulting ratio by 10,000. LTC4 standard curves are interpolated for each plate and used to convert the HTRF ratio readouts into the amount of LTC4 present in each well (in ng/mL). Parametric curve fitting is used to obtain inhibition curves and IC50 values.
As to `Nc1nc(O[C@H]2COC[C@H]2F)cc(N2CCC3(CCCC(=O)N3c3ccc(F)c(F)c3)CC2)n1` (racemic) [Example 105, rac-9-(2-amino-6-(((3S,4R)-4-fluorotetrahydrofuran-3-yl)oxy)pyrimidin-4-yl)-1-(3,4-difluorophenyl)-1,9-diazaspiro[5.5]undecan-2-one], the half-inhibitory concentration (IC50) was 6 nM.
With `O=C1CCCC2(CCN(c3cc(-c4ncco4)ncn3)CC2)N1c1ccc(F)c(F)c1` [Example 62, 1-(3,4-difluorophenyl)-9-(6-(oxazol-2-yl)pyrimidin-4-yl)-1,9-diazaspiro[5.5]undecan-2-one], the IC50 worked out at 410 nM.
In the case of `O=C1CCCC2(CCN(c3cc(-n4cncn4)ncn3)CC2)N1c1ccc(F)c(F)c1` [Example 54, 9-(6-(1H-1,2,4-triazol-1-yl)pyrimidin-4-yl)-1-(3,4-difluorophenyl)-1,9-diazaspiro[5.5]undecan-2-one] it was 300 nM; in that of `CC(F)(F)c1cc(N2CCC3(CCCC(=O)N3c3ccc(F)c(F)c3)CC2)nc(N)n1` [Example 120, 9-(2-amino-6-(1,1-difluoroethyl)pyrimidin-4-yl)-1-(3,4-difluorophenyl)-1,9-diazaspiro[5.5]undecan-2-one], 32 nM; in that of `Nc1nc(OCCO)cc(N2CCC3(CCCC(=O)N3c3ccc(F)c(F)c3)CC2)n1` [Example 94, 9-(2-amino-6-(2-hydroxyethoxy)pyrimidin-4-yl)-1-(3,4-difluorophenyl)-1,9-diazaspiro[5.5]undecan-2-one], 830 nM.
For the compound `CC(Oc1cc(N2CCC3(CCCC(=O)N3c3ccc(F)c(F)c3)CC2)nc(N)n1)C(F)(F)F` (racemic) [Example 95, rac-9-(2-amino-6-((1,1,1-trifluoropropan-2-yl)oxy)pyrimidn-4-yl)-1-(3,4-difluorophienyl)-1,9-diazaspiro[5.5]undecan-2-one], the half-inhibitory concentration (IC50) is 2 nM.
In the case of `Nc1nc(N2CCC3(CCCC(=O)N3c3ccc(F)c(F)c3)CC2)cc(C(F)(F)C(F)(F)F)n1` [Example 77, 9-(2-amino-6-(perfluoroethyl)pyrimidin-4-yl)-1-(3,4-difluorophenyl)-1,9-diazaspiro[5.5]undecane-2-one] it was 31 nM.
Regarding `O=C1CCCC2(CCN(c3cc(-n4cccn4)nc(C(F)(F)F)n3)CC2)N1c1ccc(F)c(F)c1` [Example 51, 9-(6-(1H-pyrazol-1-yl)-2-(trifluoromethyl)pyrimidin-4-yl)-1-(3,4-difluorophenyl)-1,9-diazaspiro[5.5]undecan-2-one], the IC50 was determined as 70 nM.
In the case of `O=C1CCCC2(CCN(c3cc(N4CC5(CCC5)C4)nn(Cc4ccccc4)c3=O)CC2)N1c1ccc(F)c(F)c1` [Example 10, 9-(2-benzyl-3-oxo-6-(2-azaspiro[3.3]heptan-2-yl)-2,3-dihydropyridazin-4-yl)-1-(3,4-difluorophenyl)-1,9-diazaspiro[5.5]undecan-2-one] it was 5 nM; in that of `O=C1CCCC2(CCN(c3cc(-n4cc(C(F)(F)F)cn4)ncn3)CC2)N1c1ccc(F)c(F)c1` [Example 47, 1-(3,4-difluorophenyl)-9-(6-(4-(trifluoromethyl)-1H-pyrazol-1-yl)pyrimidin-4-yl)-1,9-diazaspiro[5.5]undecan-2-one], 7 nM; in that of `Cn1cc(C2=CCC(F)(F)CC2)nc(N2CCC3(CCCC(=O)N3c3ccc(F)c(F)c3)CC2)c1=O` [Example 19, 9-(6-(4,4-difluorocyclohex-1-en-1-yl)-4-methyl-3-oxo-3,4-dihydropyrazin-2-yl)-1-(3,4-difluorophenyl)-1,9-diazaspiro[5.5]undecane-2-one], 3 nM.
In the case of `CCOC(=O)c1nc(O[C@@H]2COC[C@H]2F)cc(N2CCC3(CCCC(=O)N3c3ccc(F)c(F)c3)CC2)n1` (racemic) [Example 111, rac ethyl 4-(1-(3,4-difluorophenyl)-2-oxo-1,9-diazaspiro[5.5]undecane-9-yl)-6-(((3S,4S)-4-fluorotetrahydrofuran-3-yl)oxy)pyrimidine-2-carboxylate] it was 17 nM; in that of `O=C1CC(F)CC2(CCN(c3cc(OC4CCOCC4)ncn3)CC2)N1c1ccc(F)c(F)c1` (racemic) [Example 118, rac-1-(3,4-difluorophenyl)-4-fluoro-9-(6-((tetrahydro-2H-pyran-4-yl)oxy)pyrimidin-4-yl)-1,9-diazaspiro[5.5]undecan-2-one], 8 nM; in that of `Nc1nc(N2CCC3(CCCC(=O)N3c3ccc(F)c(F)c3)CC2)cc(C(F)(F)C(F)F)n1` [Example 78, 9-(2-amino-6-(1,1,2,2-tetrafluoroethyl)pyrimidin-4-yl)-1-(3,4-difluorophenyl)-1,9-diazaspiro[5.5]undecan-2-one], 24 nM.
Consider `O=C1CCCC2(CCN(c3cc(N4CCCOCC4)ncn3)CC2)N1c1ccc(F)c(F)c1` [Example 45, 9-(6-(1,4-oxazepan-4-yl)pyrimidin-4-yl)-1-(3,4-difluorophenyl)-1,9-diazaspiro[5.5]undecan-2-one], for which the IC50 came to 620 nM.
In the case of `O=C1CCCC2(CCN(c3cc(OC4COC4)nc(C(F)(F)F)n3)CC2)N1c1ccc(F)c(F)c1` [Example 61, 1-(3,4-difluorophenyl)-9-(6-(oxetan-3-yloxy)-2-(trifluoromethyl)pyrimidin-4-yl)-1,9-diazaspiro[5.5]undecan-2-one], the IC50 is 29 nM.
In the case of `O=C1CCCC2(CCN(c3cc(C(F)(F)C(F)(F)F)nc(CO)n3)CC2)N1c1ccc(F)c(F)c1` [Example 79, 1-(3,4-difluorophenyl)-9-(2-(hydroxymethyl)-6-(perfluoroethyl)pyrimidin-4-yl)-1,9-diazaspiro[5.5]undecane-2-one] it was 56 nM.
In the case of `Nc1nc(OC2CCOCC2)cc(N2CCC3(CC2)C[C@H](F)CC(=O)N3c2ccc(F)c(F)c2)n1` (single isomer, unassigned) [Example 116a, (R)-9-(2-amino-6-((tetrahydro-2H-pyran-4-yl)oxy)pyrimidin-4-yl)-1-(3,4-difluorophenyl)-4-fluoro-1,9-diazaspiro[5.5]undecan-2-one, or (S)-9-(2-amino-6-((tetrahydro-2H-pyran-4-yl)oxy)pyrimidin-4-yl)-1-(3,4-difluorophenyl)-4-fluoro-1,9-diazaspiro[5.5]undecan-2-one], the IC50 amounted to 13 nM.
`O=C1CCCC2(CCN(c3cc(-n4cc(C(F)(F)F)cn4)nc(CO)n3)CC2)N1c1ccc(F)c(F)c1` [Example 66, 1-(3,4-difluorophenyl)-9-(2-(hydroxymethyl)-6-(4-(trifluoromethyl)-1H-pyrazol-1-yl)pyrimidin-4-yl)1,9-diazaspiro[5.5]undecane-2-one]: the half-inhibitory concentration (IC50) was determined as 1 nM.
Take `O=C1CCCC2(CCN(c3cc(Oc4cccc(Cl)c4)cc[n+]3[O-])CC2)N1c1ccc(F)c(F)c1` [Example 34, 4-(3-chlorophenoxy)-2-(1-(3,4-difluorophenyl)-2-oxo-1,9-diazaspiro[5.5]undecan-9-yl)pyridine 1-oxide]: the IC50 was determined as 2 nM.
In the case of `Nc1nc(N2CCC3(CCCC(=O)N3c3ccc(F)c(F)c3)CC2)c(F)c(N2CCC(O)(C(F)(F)F)CC2)n1` [Example 41, 9-(2-amino-5-fluoro-6-(4-hydroxy-4-(trifluoromethyl)piperidin-1-yl)pyrimidin-4-yl)-1-(3,4-difluorophenyl)-1,9-diazaspiro[5.5]undecan-2-one], the IC50 is 5 nM.
